Experiments:
Type in all cases: in vivo
[1] = test system: Johnsongrass (Sorghum halepense, SORHA); assay: Pre-emerge greenhouse herbicide test, phytotoxicity rating; details: 14 days after application, rating scale 0-100
Summary of the method: (§1)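 Seeds sown in sandy loam mix one day before track-sprayer application of compounds in acetone at 125–1000 g ai/ha (187 l/ha), then surface-watered to incorporate and bottom-watered. Visual rating 14 days after application on a 0–100 scale (0 = no damage, 100 = all plants dead).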

[2] = test system: barnyardgrass (Echinochloa crusgalli, ECHCG); assay: as above; details: 14 days after application, rating scale 0-100
Summary of the method: as §1

[3] = test system: common ragweed (Ambrosia artemisiifolia L., AMBEL); assay: as above; details: 14 days after application, rating scale 0-100
Summary of the method: as §1

[4] = test system: green foxtail (Setaria viridis, SETVI); assay: as above; details: 14 days after application, rating scale 0-100
Summary of the method: as §1

[5] = test system: ivyleaf morningglory (Ipomoea hederacea, IPOHE); assay: as above; details: 14 days after application, rating scale 0-100
Summary of the method: as §1

[6] = test system: lambsquarters (Chenopodium album, CHEAL); assay: as above; details: 14 days after application, rating scale 0-100
Summary of the method: as §1

[7] = test system: large crabgrass (Digitaria sanguinalis, DIGSA); assay: as above; details: 14 days after application, rating scale 0-100
Summary of the method: as §1

[8] = test system: redroot pigweed (Amaranthus retroflexus, AMARE); assay: as above; details: 14 days after application, rating scale 0-100
Summary of the method: as §1

[9] = test system: sicklepod (Cassia obtusifolia, CASOB); assay: as above; details: 14 days after application, rating scale 0-100
Summary of the method: as §1

[10] = test system: velvetleaf (Abutilon theophrasti, ABUTH); assay: as above; details: 14 days after application, rating scale 0-100
Summary of the method: as §1

[11] = test system: field corn (Zea mays L., var. Dekalb 535, CORN); assay: Pre-emerge greenhouse test, crop damage rating; details: 14 days after application, rating scale 0-100
Summary of the method: as §1

[12] = test system: upland rice (Oryza sp., var.Tebonnet, RICE); assay: Pre-emerge greenhouse test, crop damage rating; details: 14 days after application, rating scale 0-100
Summary of the method: as §1

[13] = test system: soybean (Glycine max L., var. Pella 86, SOY); assay: Pre-emerge greenhouse test, crop damage rating; details: 14 days after application, rating scale 0-100
Summary of the method: as §1

[14] = test system: common ragweed (Ambrosia artemisiifolia L., AMBEL); assay: Post-emerge greenhouse herbicide test, phytotoxicity rating; details: 14 days after application
Summary of the method: (§2)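 Compounds in acetone with 0.25% v/v non-ionic surfactant were track-sprayed at 187 l/ha over plants at the 2-3 leaf stage, at 63 to 1000 g ai/ha. Pots were bottom-watered. Injury was scored visually 14 days later on a 0-100 scale, where 0 is no damage and 100 is complete plant death.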

[15] = test system: Johnsongrass (Sorghum halepense, SORHA); assay: as above; details: 14 days after application
Summary of the method: as §2

[16] = test system: barnyardgrass (Echinochloa crusgalli, ECHCG); assay: as above; details: 14 days after application
Summary of the method: as §2

[17] = test system: green foxtail (Setaria viridis, SETVI); assay: as above; details: 14 days after application
Summary of the method: as §2

[18] = test system: ivyleaf morningglory (Ipomoea hederacea, IPOHE); assay: as above; details: 14 days after application
Summary of the method: as §2

[19] = test system: lambsquarters (Chenopodium album, CHEAL); assay: as above; details: 14 days after application
Summary of the method: as §2

[20] = test system: large crabgrass (Digitaria sanguinalis, DIGSA); assay: as above; details: 14 days after application
Summary of the method: as §2

[21] = test system: redroot pigweed (Amaranthus retroflexus, AMARE); assay: as above; details: 14 days after application
Summary of the method: as §2

[22] = test system: velvetleaf (Abutilon theophrasti, ABUTH); assay: as above; details: 14 days after application
Summary of the method: as §2

[23] = test system: field corn (Zea mays L., var. Dekalb 535, CORN); assay: Post-emerge greenhouse test, crop damage rating; details: 14 days after application
Summary of the method: as §2

[24] = test system: upland rice (Oryza sp., var.Tebonnet, RICE); assay: Post-emerge greenhouse test, crop damage rating; details: 14 days after application
Summary of the method: as §2

[25] = test system: soybean (Glycine max L., var. Pella 86, SOY); assay: Post-emerge greenhouse test, crop damage rating; details: 14 days after application
Summary of the method: as §2

CCOC(=O)C(C)Oc1ccc(Oc2cc(-n3c(=O)n4n(c3=S)CCCC4)c(F)cc2Cl)cc1 (stereo not drawn) [Compound 8-11]
phytotoxicity rating SORHA ([1]; 125 g ai/ha): 70
phytotoxicity rating SORHA ([1]; 500 g ai/ha): 40
phytotoxicity rating ECHCG ([2]; 125 g ai/ha): 60
phytotoxicity rating ECHCG ([2]; 500 g ai/ha): 70
phytotoxicity rating AMBEL ([3]; 125 g ai/ha): 95
phytotoxicity rating AMBEL ([3]; 500 g ai/ha): 100
phytotoxicity rating SETVI ([4]; 125 g ai/ha): 90
phytotoxicity rating SETVI ([4]; 500 g ai/ha): 100
phytotoxicity rating IPOHE ([5]; 125 g ai/ha): 70
phytotoxicity rating IPOHE ([5]; 500 g ai/ha): 100
phytotoxicity rating CHEAL ([6]; 125 g ai/ha): 100
phytotoxicity rating CHEAL ([6]; 500 g ai/ha): 100
phytotoxicity rating DIGSA ([7]; 125 g ai/ha): 20
phytotoxicity rating DIGSA ([7]; 500 g ai/ha): 80
phytotoxicity rating AMARE ([8]; 125 g ai/ha): 100
phytotoxicity rating AMARE ([8]; 500 g ai/ha): 100
phytotoxicity rating CASOB ([9]; 125 g ai/ha): 70
phytotoxicity rating CASOB ([9]; 500 g ai/ha): 60
phytotoxicity rating ABUTH ([10]; 125 g ai/ha): 100
phytotoxicity rating ABUTH ([10]; 500 g ai/ha): 100
crop damage rating CORN ([11]; 125 g ai/ha): 0
crop damage rating CORN ([11]; 500 g ai/ha): 0
crop damage rating RICE ([12]; 125 g ai/ha): 50
crop damage rating RICE ([12]; 500 g ai/ha): 80
crop damage rating SOY ([13]; 125 g ai/ha): 20
crop damage rating SOY ([13]; 500 g ai/ha): 30
AMBEL phytotoxicity rating (0-100) ([14]; 63 g al/ha): 100
AMBEL phytotoxicity rating (0-100) ([14]; 500 g al/ha): 100
SORHA phytotoxicity rating (0-100) ([15]; 63 g al/ha): 90
SORHA phytotoxicity rating (0-100) ([15]; 500 g al/ha): 99
ECHCG phytotoxicity rating (0-100) ([16]; 63 g al/ha): 100
ECHCG phytotoxicity rating (0-100) ([16]; 500 g al/ha): 100
SETVI phytotoxicity rating (0-100) ([17]; 63 g al/ha): 30
SETVI phytotoxicity rating (0-100) ([17]; 500 g al/ha): 60
IPOHE phytotoxicity rating (0-100) ([18]; 63 g al/ha): 100
IPOHE phytotoxicity rating (0-100) ([18]; 500 g al/ha): 100
CHEAL phytotoxicity rating (0-100) ([19]; 63 g al/ha): 100
CHEAL phytotoxicity rating (0-100) ([19]; 500 g al/ha): 100
DIGSA phytotoxicity rating (0-100) ([20]; 63 g al/ha): 50
DIGSA phytotoxicity rating (0-100) ([20]; 500 g al/ha): 90
AMARE phytotoxicity rating (0-100) ([21]; 63 g al/ha): 100
AMARE phytotoxicity rating (0-100) ([21]; 500 g al/ha): 100
ABUTH phytotoxicity rating (0-100) ([22]; 63 g al/ha): 100
ABUTH phytotoxicity rating (0-100) ([22]; 500 g al/ha): 100
CORN crop damage rating (0-100) ([23]; 63 g al/ha): 20
CORN crop damage rating (0-100) ([23]; 500 g al/ha): 95
RICE crop damage rating (0-100) ([24]; 63 g al/ha): 40
RICE crop damage rating (0-100) ([24]; 500 g al/ha): 50
SOY crop damage rating (0-100) ([25]; 63 g al/ha): 90
SOY crop damage rating (0-100) ([25]; 500 g al/ha): 100

O=c1n(CCCF)nnn1-c1cc(Oc2ncccc2C(F)(F)F)c(Cl)cc1Cl [Compound 6-7]
phytotoxicity rating SORHA ([1]; 125 g ai/ha): 20
phytotoxicity rating SORHA ([1]; 500 g ai/ha): 40
phytotoxicity rating ECHCG ([2]; 125 g ai/ha): 0
phytotoxicity rating ECHCG ([2]; 500 g ai/ha): 50
phytotoxicity rating AMBEL ([3]; 125 g ai/ha): 30
phytotoxicity rating AMBEL ([3]; 500 g ai/ha): 0
phytotoxicity rating SETVI ([4]; 125 g ai/ha): 80
phytotoxicity rating SETVI ([4]; 500 g ai/ha): 100
phytotoxicity rating IPOHE ([5]; 125 g ai/ha): 0
phytotoxicity rating IPOHE ([5]; 500 g ai/ha): 30
phytotoxicity rating CHEAL ([6]; 125 g ai/ha): 80
phytotoxicity rating CHEAL ([6]; 500 g ai/ha): 90
phytotoxicity rating DIGSA ([7]; 125 g ai/ha): 40
phytotoxicity rating DIGSA ([7]; 500 g ai/ha): 70
phytotoxicity rating AMARE ([8]; 500 g ai/ha): 100
phytotoxicity rating CASOB ([9]; 125 g ai/ha): 0
phytotoxicity rating CASOB ([9]; 500 g ai/ha): 60
phytotoxicity rating ABUTH ([10]; 125 g ai/ha): 0
phytotoxicity rating ABUTH ([10]; 500 g ai/ha): 20
crop damage rating CORN ([11]; 125 g ai/ha): 0
crop damage rating CORN ([11]; 500 g ai/ha): 30
crop damage rating RICE ([12]; 125 g ai/ha): 0
crop damage rating RICE ([12]; 500 g ai/ha): 40
crop damage rating SOY ([13]; 125 g ai/ha): 80
crop damage rating SOY ([13]; 500 g ai/ha): 90
AMBEL phytotoxicity rating (0-100) ([14]; 63 g al/ha): 0
AMBEL phytotoxicity rating (0-100) ([14]; 500 g al/ha): 30
SORHA phytotoxicity rating (0-100) ([15]; 63 g al/ha): 0
SORHA phytotoxicity rating (0-100) ([15]; 500 g al/ha): 30
ECHCG phytotoxicity rating (0-100) ([16]; 63 g al/ha): 0
ECHCG phytotoxicity rating (0-100) ([16]; 500 g al/ha): 50
SETVI phytotoxicity rating (0-100) ([17]; 63 g al/ha): 20
SETVI phytotoxicity rating (0-100) ([17]; 500 g al/ha): 30
IPOHE phytotoxicity rating (0-100) ([18]; 63 g al/ha): 0
IPOHE phytotoxicity rating (0-100) ([18]; 500 g al/ha): 50
CHEAL phytotoxicity rating (0-100) ([19]; 63 g al/ha): 50
CHEAL phytotoxicity rating (0-100) ([19]; 500 g al/ha): 80
DIGSA phytotoxicity rating (0-100) ([20]; 63 g al/ha): 0
DIGSA phytotoxicity rating (0-100) ([20]; 500 g al/ha): 10
AMARE phytotoxicity rating (0-100) ([21]; 63 g al/ha): 70
AMARE phytotoxicity rating (0-100) ([21]; 500 g al/ha): 80
ABUTH phytotoxicity rating (0-100) ([22]; 63 g al/ha): 0
ABUTH phytotoxicity rating (0-100) ([22]; 500 g al/ha): 70
CORN crop damage rating (0-100) ([23]; 63 g al/ha): 0
CORN crop damage rating (0-100) ([23]; 500 g al/ha): 10
RICE crop damage rating (0-100) ([24]; 63 g al/ha): 0
RICE crop damage rating (0-100) ([24]; 500 g al/ha): 50
SOY crop damage rating (0-100) ([25]; 63 g al/ha): 0
SOY crop damage rating (0-100) ([25]; 500 g al/ha): 30
